# From patent US8501810B2, “Guanidino acetic acid used as an animal food additive” (AlzChem Trostberg GmbH, priority 2004, dated 2013)
# Columns and labels:
# [1] = Comparative example: creatine in the feed for growing hens, 41 days growing duration; assay type: in vivo; conditions: 0.2% (2 g/kg) in air-dried feed
# Description: 2. Comparative Example (According to EP 920 689)
# The effect of the addition of creatine in the feed for growing hens was investigated.
# The feed consumption decreased by about 2-3% compared with previous feeding methods.
# [2] = test system: Staphyllococcus aureus; conditions: cited from earlier work
# [3] = 1.112% in base feed, also in combination with methionine; cited from earlier work
# [4] = Feed for growing hens, additive in air-dried feed, 42 days' growing duration; assay type: in vivo
# Description: 1.4 Feed for Growing Hens
# In addition, with this feed additive, the feed consumption decreased by about 6% compared with previous feeding methods.
# In addition, it was found in this experiment that even an addition of 0.032% by weight of guanidinoacetic acid (0.32 g/kg) to the air-dried feed increased the final weight by 3% for 42 days' growing duration. The feed consumption decreased by 3% compared with previous feeding methods.
# [5] = young rats, cited from earlier work
# [6] = Stability in acidic aqueous solution; assay type: physicochemical
# Description: Thus in contrast to creatine, the majority of the compounds administered or fed, guanidinoacetic acid and/or salts of guanidinoacetic acid, are not degraded by instability reactions, for example in the stomach, and excreted before resorption, but are in fact available in the corresponding physiological metabolic reactions.
# [7] = 0.032% by weight (0.32 g/kg) in air-dried feed
# [8] = 0.092% by weight (0.92 g/kg) in air-dried feed
# [9] = control group, 0.04% by weight (0.4 g/kg) in air-dried feed
smiles,measurement,setting,value
CN(CC(=O)O)C(=N)N [creatine],decrease in feed consumption compared with previous feeding methods,[1],2-3%
same,increase in the final weight compared with previous feeding methods,[1],4%
same,meat quality,[1],improved quality
same,nature of the increase in weight (lean-body mass index),[1],"only by meat gain, but not by fat gain"
N=C(N)NCC(=O)O [guanidinoacetic acid],use against bacterial infections in animal experiments,[2],successfully used
same,feed utilization,[3],significant decrease
same,weight gain,[3],significant decrease
same,decrease in feed consumption compared with previous feeding methods,[4]; [7],3%
same,increase in the final weight,[4]; [7],3%
same,decrease in feed consumption compared with previous feeding methods,[4]; [8],about 6%
same,increase in the final weight compared with previous feeding methods,[4]; [8],7%
same,meat quality,[4]; [8],improved quality
same,nature of the increase in weight (lean-body mass index),[4]; [8],"solely by meat gain, but not by fat gain or water accumulation"
same,creatine content in the skeletal musculature and in the heart muscle,[5]; additional administration of methionine,increased
same,effect on the muscle creatine level,[5]; in combination with folacin and vitamin B12,no effect
same,effect on growth,[5],inhibitory activity
same,stability in acidic aqueous solution in contrast to creatine and creatine monohydrate,[6],significantly higher stability
"CN(CC(=O)O)C(=N)N.O [creatine monohydrate, reference compound]",decrease in feed consumption,[4]; [9],no decreased feed consumption
same,increase in the final weight,[4]; [9],no increase in the final weight
